Assay results taken from US10711006B2, “Selective Bruton's tyrosine kinase inhibitor and use thereof” (HANGZHOU HERTZ PHARMACEUTICAL CO., LTD., priority 2016, dated 2020).

Key:
BTK Kinase = BTK Kinase (Homo sapiens (Human), UniProt Q06187); assay: In-vitro Btk kinase inhibitory activity assay; assay type: biochemical
Experimental: In-Vitro Btk Kinase Inhibitory Activity Assay for Compounds of the Present Invention:
10 μL of the 50× drug stock solution was added to a 96-well plate and then 90 μL of a 1× Kinase Buffer was added and the 96-well plate was shaken for 10 minutes on a shaker. From each well of the 96-well plate, 5 μL of the drug solution was taken and then transferred to a 384-well plate which was provided with 2 duplicate wells.
Preparation of a 2.5× Kinase Buffer: an enzyme was added to the 1× kinase base buffer.
Prepare a 2.5× oligopeptide solution: FAM-labeled oligopeptide and ATP were added to the 1× kinase base buffer.
10 μL of the 2.5× Kinase Buffer was added to the 384-well plate loaded with 5 μL of the drug solution and incubation was then carried out for 10 minutes at room temperature. 10 μL of the 2.5× oligopeptide solution was added to the 384-well plate and incubation was then carried out for 1 hour at 28° C. The reaction was stopped by adding 25 μL of a stop buffer. The readings were recorded and the inhibition rate of the compound on the enzyme was calculated. The IC50 of BTK kinase was calculated by fitting.

BLK = BLK (Homo sapiens (Human), UniProt P51451); assay: Kinase selectivity experiment, BLK; assay type: biochemical; settings: read-out: Inhibitory activity against BLK (IC50)
Experimental: (§1) A 1× kinase base buffer and a reaction stop buffer for respective kinases in the experiment were prepared as required.
(§2) Preparation of Compounds to be Tested:
(§3) 2) diluting each compound at a 5-fold concentration gradient in a 96-well plate to 6 to 7 concentrations and ensuring that the drug volume in each well was 10 μl; and at the same time adding 100 μl of DMSO to prepare a blank control group and also preparing a negative control group without the enzyme substrate; and
(§4) 3) preparing another 96-well plate, adding 10 μl of each of the above compounds to 90 μl of the 1× kinase base buffer and mixing for 10 minutes to be uniform.
(§5) Preparation of the Plate to be Tested:
(§6) 1) 5 μl of the mixed solution prepared as above in the 96-well plate was taken and transferred to a 384-well plate, with two replicate wells for each compound.
(§7) 1) Preparing a 2.5× kinase solution and adding a corresponding 1× kinase base buffer;
(§8) 2) preparing a 2.5× polypeptide solution and adding FAM-labeled polypeptide and ATP in the 1× kinase base buffer; and
(§9) 3) adding 10 μl of 2.5× kinase solution to a 384-well plate to be tested, placing in a room-temperature environment for 10 minutes, and then adding 10 μl of the 2.5× polypeptide solution, reacting at 28° C. for 1 hour, and then adding 25 μl of a reaction stop buffer.
(§10) The Caliper program reads the plate and uses the data to obtain the IC50 values of the corresponding compounds against kinases.

CSK = CSK (Homo sapiens (Human), UniProt P41240); assay: Kinase selectivity experiment, CSK; assay type: biochemical; settings: read-out: Inhibitory activity against CSK (IC50)
Experimental: as §1, §2, §3, §4, §5, §6, §7, §8, §9, §10

FGR = FGR (Homo sapiens (Human), UniProt P09769); assay: Kinase selectivity experiment, FGR; assay type: biochemical; settings: read-out: Inhibitory activity against FGR (IC50)
Experimental: as §1, §2, §3, §4, §5, §6, §7, §8, §9, §10

HCK = HCK (Homo sapiens (Human), UniProt P08631); assay: Kinase selectivity experiment, HCK; assay type: biochemical; settings: read-out: Inhibitory activity against HCK (IC50)
Experimental: as §1, §2, §3, §4, §5, §6, §7, §8, §9, §10

JAK3 = JAK3 (Homo sapiens (Human), UniProt P52333); assay: Kinase selectivity experiment, JAK3; assay type: biochemical; settings: read-out: Inhibitory activity against JAK3 (IC50)
Experimental: as §1, §2, §3, §4, §5, §6, §7, §8, §9, §10

FLT3 = FLT3 (Homo sapiens (Human), UniProt P36888); assay: Kinase selectivity experiment, FLT3; assay type: biochemical; settings: read-out: Inhibitory activity against FLT3 (IC50)
Experimental: as §1, §2, §3, §4, §5, §6, §7, §8, §9, §10

[1] = tested on: Mino subcutaneous xenograft tumor; assay: In-vivo pharmacodynamic study on Mino subcutaneous xenograft tumor models; settings: CB17 SCID mice, intragastric, twice a day
Experimental: In CB17 SCID mice, 0.2 mL of cell suspension containing 5×10^6 Mino cells was subcutaneously inoculated into the right back of each mouse, and when the mean tumor volume reaches approximately 139.94 mm3 (day 26 after inoculation), group administration was started (intragastric administration, twice a day, 14 days in total). Animals were monitored daily for health and mortality, and tumor diameters were measured twice a week using vernier calipers to see if tumor growth could be inhibited, delayed, or cured.

[2] = tested on: arthritis induced by anti-collagen antibodies and lipopolysaccharides; assay: Rheumatoid arthritis model induced by anti-collagen antibodies and lipopolysaccharides; assay type: in vivo, Balb/c mice; settings: for level of IL-1β in serum (in words): 10 mg/kg orally once a day; for level of IL-1β in serum (in words) / inflammatory cell infiltration, synovial hyperplasia, inflammatory granulation tissue formation, necrotic tissue: versus model group; for IL-1β: serum on Day 13, 10 mg/kg orally once a day Day 2 to Day 12; for inflammatory cell infiltration, synovial hyperplasia, inflammatory granulation tissue formation, necrotic tissue: tissue samples after treatment
Experimental: In Balb/c mice, arthritis was induced by administration of anti-collagen antibodies and lipopolysaccharides (Nandakumar et al., Am. J. Pathol. 2003, 163: 1827-1837).
The specific method was as follows: On Day 0, female Balb/c mice were intravenously injected with anti-type II collagen ChemicomAb mixture in a dose of 100 mg/kg, and on Day 1, lipopolysaccharide was intraperitoneally injected in a dose of 1.25 mg/kg. From Day 2 to Day 12, Compounds 15a, 17a, 24a and 24e were orally administered once a day in a dose of 10 mg/kg. On Day 13 after abdominal anesthesia, […] of blood was taken from the femoral artery and centrifuged at 3000 r/min for 20 minutes, serum was taken to detect IL-1β with a test kit, and related tissue samples were observed.

[3] = tested on: human lung cancer cell (A549); assay: In-vitro tumor cell proliferation inhibition (CCK-8), A549; settings: A549, 72 h, read-out: Tumor cell proliferation inhibitory activity (IC50, μM) A549
[4] = tested on: human mantle cell lymphoma (MINO); assay: In-vitro tumor cell proliferation inhibition (CCK-8), MINO; settings: 72 h, read-out: Tumor cell proliferation inhibitory activity (IC50, μM) MINO
Experimental: (§11) The in-vitro antitumor activity assay was carried out on the synthesized compound by using different solid tumors and leukemia cell lines:
(§12) Cell lines: human lung cancer cell (A549), human mantle cell lymphoma (MINO), diffuse giant B-cell lymphoma (OCI-LY10), and human diffuse large B lymphoma (TMD-8).
(§13) Preparation method of the drug: the drug was dissolved in DMSO to make a 10 mM stock solution, and then the stock solution was diluted in a certain ratio to obtain 5 different concentrations (test concentration 100×). In-vitro culture of tumor cells:
(§14) The tumor cells A549, MINO, OCI-LY10, and TMD-8 were seeded in a 96-well plate at 4000 cells/200 μL/well and then incubated overnight at 37° C. in a 5% CO2 cell culture incubator. 2 μL of the compound was added to each well to final concentrations of 50 μM, 10 μM, 2 μM, 0.4 μM, and 0.08 μM and then incubated for 72 hours at 37° C. in a 5% CO2 cell incubator, with DMSO (2%) as a control group. […] Wells loaded with the corresponding amount of cell culture fluid the and CCK-8 solution but no cells were considered as blank controls. The absorbance (OD value) was measured at 450 nm using a microplate reader, and the obtained data was used to calculate IC50.

[5] = tested on: human diffuse large B lymphoma (TMD-8); assay: In-vitro tumor cell proliferation inhibition (CCK-8), TMD-8; settings: TMD8, 72 h, read-out: Tumor cell proliferation inhibitory activity (IC50, nM) TMD-8
Experimental: as §11, §12, §13, §14

[6] = tested on: diffuse giant B-cell lymphoma (OCI-LY10); assay: In-vitro tumor cell proliferation inhibition (CCK-8), OCI-LY10; settings: Homo sapiens, OCI-Ly10, 72 h, read-out: Tumor cell proliferation inhibitory activity (IC50, nM) OCI-LY10

Sequence of BLK (P51451 whole entry, species assumed): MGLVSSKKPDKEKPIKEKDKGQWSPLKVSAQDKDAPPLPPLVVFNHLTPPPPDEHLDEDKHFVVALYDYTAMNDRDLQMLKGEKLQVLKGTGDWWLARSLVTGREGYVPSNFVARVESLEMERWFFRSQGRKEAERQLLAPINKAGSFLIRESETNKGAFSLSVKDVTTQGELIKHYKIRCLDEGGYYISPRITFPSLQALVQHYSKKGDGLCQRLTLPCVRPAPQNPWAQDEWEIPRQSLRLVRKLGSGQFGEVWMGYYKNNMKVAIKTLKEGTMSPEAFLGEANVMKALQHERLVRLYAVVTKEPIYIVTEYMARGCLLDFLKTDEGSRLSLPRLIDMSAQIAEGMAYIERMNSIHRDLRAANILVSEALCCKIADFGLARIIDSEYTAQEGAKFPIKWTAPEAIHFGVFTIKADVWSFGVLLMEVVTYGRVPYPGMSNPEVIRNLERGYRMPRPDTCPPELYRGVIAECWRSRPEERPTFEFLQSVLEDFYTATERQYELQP
Sequence of JAK3 (P52333 whole entry, species assumed): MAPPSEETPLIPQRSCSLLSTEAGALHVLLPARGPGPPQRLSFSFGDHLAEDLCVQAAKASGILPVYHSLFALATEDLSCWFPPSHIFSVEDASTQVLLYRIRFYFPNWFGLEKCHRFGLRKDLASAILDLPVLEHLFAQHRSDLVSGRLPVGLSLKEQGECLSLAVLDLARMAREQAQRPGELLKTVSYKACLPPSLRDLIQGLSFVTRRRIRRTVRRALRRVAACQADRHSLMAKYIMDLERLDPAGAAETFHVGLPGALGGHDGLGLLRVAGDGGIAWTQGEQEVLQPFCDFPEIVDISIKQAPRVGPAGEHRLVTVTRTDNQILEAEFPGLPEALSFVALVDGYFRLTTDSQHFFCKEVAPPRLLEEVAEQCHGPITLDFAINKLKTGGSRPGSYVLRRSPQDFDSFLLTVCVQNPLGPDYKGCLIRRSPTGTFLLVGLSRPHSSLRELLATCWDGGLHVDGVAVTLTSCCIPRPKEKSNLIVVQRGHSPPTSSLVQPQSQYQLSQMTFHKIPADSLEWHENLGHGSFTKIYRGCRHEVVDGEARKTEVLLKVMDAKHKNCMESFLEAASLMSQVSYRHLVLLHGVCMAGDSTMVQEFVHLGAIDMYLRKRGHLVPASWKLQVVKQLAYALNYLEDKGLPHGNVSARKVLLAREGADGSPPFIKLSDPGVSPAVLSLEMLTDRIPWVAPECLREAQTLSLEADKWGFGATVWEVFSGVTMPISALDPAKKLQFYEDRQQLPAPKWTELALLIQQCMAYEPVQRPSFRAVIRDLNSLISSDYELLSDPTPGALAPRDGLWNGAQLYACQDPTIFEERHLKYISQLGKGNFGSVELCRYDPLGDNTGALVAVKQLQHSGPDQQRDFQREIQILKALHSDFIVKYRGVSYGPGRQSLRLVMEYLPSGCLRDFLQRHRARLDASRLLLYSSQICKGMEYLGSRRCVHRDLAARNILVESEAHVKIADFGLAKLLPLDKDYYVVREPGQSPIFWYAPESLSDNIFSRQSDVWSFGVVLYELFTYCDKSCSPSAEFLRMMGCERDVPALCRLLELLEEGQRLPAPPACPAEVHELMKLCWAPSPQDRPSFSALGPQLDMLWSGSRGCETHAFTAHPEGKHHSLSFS
Sequence of FGR (P09769 whole entry, species assumed): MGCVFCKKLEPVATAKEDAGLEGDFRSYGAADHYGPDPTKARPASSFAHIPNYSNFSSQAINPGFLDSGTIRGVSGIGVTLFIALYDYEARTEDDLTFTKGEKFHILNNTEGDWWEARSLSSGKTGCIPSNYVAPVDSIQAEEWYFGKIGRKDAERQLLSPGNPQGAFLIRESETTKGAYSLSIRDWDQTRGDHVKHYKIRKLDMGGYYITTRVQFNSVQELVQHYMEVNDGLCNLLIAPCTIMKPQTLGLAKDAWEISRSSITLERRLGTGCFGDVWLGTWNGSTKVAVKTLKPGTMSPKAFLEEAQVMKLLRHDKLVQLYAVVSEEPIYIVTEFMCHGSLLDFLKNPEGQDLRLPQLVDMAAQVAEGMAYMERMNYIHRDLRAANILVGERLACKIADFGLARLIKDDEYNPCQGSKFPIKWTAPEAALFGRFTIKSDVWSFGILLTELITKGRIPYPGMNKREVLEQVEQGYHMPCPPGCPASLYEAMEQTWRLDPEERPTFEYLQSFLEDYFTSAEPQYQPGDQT
Sequence of BTK Kinase (Q06187 whole entry): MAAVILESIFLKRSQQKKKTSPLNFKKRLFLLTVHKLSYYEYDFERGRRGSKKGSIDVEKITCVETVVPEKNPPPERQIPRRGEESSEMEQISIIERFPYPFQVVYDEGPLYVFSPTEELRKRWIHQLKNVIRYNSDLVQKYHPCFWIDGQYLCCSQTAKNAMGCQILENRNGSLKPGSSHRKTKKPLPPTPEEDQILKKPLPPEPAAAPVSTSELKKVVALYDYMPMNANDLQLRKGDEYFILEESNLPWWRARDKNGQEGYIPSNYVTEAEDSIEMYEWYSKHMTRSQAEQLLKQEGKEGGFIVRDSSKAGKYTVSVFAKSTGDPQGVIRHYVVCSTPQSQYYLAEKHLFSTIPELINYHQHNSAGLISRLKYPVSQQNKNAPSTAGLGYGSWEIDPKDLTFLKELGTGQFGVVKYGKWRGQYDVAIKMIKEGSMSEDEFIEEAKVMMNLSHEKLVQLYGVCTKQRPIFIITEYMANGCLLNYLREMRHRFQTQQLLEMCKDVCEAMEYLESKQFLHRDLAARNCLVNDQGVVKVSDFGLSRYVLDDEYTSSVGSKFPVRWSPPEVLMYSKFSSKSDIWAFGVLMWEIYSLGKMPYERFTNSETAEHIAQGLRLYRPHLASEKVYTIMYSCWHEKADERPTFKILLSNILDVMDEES
Sequence of HCK (P08631 whole entry, species assumed): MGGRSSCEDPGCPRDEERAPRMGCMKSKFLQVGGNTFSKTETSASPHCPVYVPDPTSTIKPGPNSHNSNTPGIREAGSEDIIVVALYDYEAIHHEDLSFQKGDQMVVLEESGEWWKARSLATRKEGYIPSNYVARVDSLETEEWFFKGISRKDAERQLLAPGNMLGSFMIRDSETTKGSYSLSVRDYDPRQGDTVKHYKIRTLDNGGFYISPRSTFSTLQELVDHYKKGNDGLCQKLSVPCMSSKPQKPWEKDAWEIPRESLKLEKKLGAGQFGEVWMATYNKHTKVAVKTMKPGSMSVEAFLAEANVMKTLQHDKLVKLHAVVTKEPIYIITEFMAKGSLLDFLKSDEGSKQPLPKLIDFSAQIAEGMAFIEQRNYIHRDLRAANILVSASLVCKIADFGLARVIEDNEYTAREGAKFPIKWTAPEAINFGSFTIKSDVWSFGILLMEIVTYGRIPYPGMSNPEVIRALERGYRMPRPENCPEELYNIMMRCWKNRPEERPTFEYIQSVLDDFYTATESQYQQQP
Sequence of FLT3 (P36888 27-993, species assumed): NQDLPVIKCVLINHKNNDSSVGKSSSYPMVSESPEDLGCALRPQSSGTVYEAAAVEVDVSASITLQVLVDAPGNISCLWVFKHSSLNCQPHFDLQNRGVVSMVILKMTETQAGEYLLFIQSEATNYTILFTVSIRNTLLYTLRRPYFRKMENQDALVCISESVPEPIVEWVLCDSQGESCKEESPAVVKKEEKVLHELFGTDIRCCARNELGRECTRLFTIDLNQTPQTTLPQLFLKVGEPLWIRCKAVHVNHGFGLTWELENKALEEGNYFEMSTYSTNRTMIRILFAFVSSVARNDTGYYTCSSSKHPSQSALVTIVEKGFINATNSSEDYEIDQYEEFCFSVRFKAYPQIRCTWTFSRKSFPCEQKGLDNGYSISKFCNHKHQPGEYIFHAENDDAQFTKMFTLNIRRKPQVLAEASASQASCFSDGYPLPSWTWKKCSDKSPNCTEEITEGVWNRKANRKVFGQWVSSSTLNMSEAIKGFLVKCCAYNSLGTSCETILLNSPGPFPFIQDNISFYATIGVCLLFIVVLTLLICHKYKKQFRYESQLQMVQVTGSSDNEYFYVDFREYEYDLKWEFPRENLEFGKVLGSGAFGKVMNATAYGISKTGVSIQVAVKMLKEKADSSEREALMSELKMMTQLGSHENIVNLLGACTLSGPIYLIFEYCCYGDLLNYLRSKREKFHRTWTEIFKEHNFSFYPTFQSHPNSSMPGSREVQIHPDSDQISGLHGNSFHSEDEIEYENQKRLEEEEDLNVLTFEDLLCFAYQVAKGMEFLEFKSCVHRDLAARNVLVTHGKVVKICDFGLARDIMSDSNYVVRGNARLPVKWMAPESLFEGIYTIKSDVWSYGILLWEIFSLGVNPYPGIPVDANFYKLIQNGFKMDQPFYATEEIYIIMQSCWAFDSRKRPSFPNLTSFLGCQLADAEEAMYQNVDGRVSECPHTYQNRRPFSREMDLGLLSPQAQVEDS

IC50 (BTK Kinase) [µM] | IC50 (BLK) [µM] | IC50 (CSK) [µM] | IC50 (FGR) [µM] | IC50 (HCK) [µM] | IC50 (JAK3) [µM] | IC50 (FLT3) [µM] | IC50 [3] [µM] | IC50 [4] [µM] | IC50 [5] [nM] | IC50 [6] [nM] | SMILES | TGI*(14 days) (%) calculated on the basis of tumor volume [1] [%] | TGI**(14 days) (%) calculated on the basis of tumor weight [1] [%] | level of IL-1β in serum (in words) [2] | IL-1β [2] [ng/L] | inflammatory cell infiltration, synovial hyperplasia, inflammatory granulation tissue formation, necrotic tissue [2]
0.0032 | 0.03 | > 1 | > 1 | > 1 | > 1 | > 1 | 1.56 | 6.17 | 8.16 | 2.5 | C=CC(=O)N1CCC[C@@H](n2nc(-c3ccc(Oc4ccccc4)nc3)c3c(N)ncnc32)C1 [Compound 15a, (R)-1-(3-(4-amino-3-(6-phenoxypyridin-3-yl)-1H-pyrazolo[3,4-d]pyrimidin-1-yl)piperidin-1-yl) prop-2-en-1-one] | 65.01 | 61.00 | significantly reduce | 18.72 ± 6.6 | significantly improved
0.0025 | 0.0054 | > 1 | > 1 | > 1 | > 1 | > 1 | 2.11 | 9.46 | 16.9 | 2.17 | C=CC(=O)N1CC[C@@H](n2nc(-c3ccc(Oc4ccccc4)nc3F)c3c(N)ncnc32)C1 [Compound 24a, (R)-1-(3-(4-amino-3-(2-fluoro-6-phenoxypyridin-3-yl)-1H-pyrazolo[3,4-d]pyrimidin-1-yl)pyrrolidin-1-yl)prop-2-en-1-one] | 73.80 | 65.19 | significantly reduce | 19.32 ± 4.2 | significantly improved
